The results in this text go back to patent US20240374581A1, “SALT TYPES OF TRICYCLIC TETRAHYDRO ISOQUINOLINE DERIVATIVE” (JIANGSU HENGRUI PHARMACEUTICALS CO., LTD., priority 2021, published 2024).

Broadly, the IC50 is the point on the concentration scale where inhibition reaches its midpoint. Low readings indicate greater potency in that assay, high ones weaker potency in that assay.

The target of data set [1] is T1, CYP3A4 (Homo sapiens (Human), UniProt P08684). The data set is described as follows: Inhibition of site of metabolism of midazolam in human liver microsome CYP3A4. The format is in vitro ADME. To be noted: 30 min. How it is done:
• 1. Phosphate buffer (20×PBS, purchased from Sangon); • 2. NADPH (ACROS, A2646-71-1); • 3. Human liver microsome (Corning Gentest, Cat No. 452161, Lot No. 9050002, Donor, 36); • 4. ABI QTrap 4000 LC-MS System (AB Sciex); • 5. ZORBAX Extend-C18, 3×50 mm, 3.5 m (Agilent, USA); • 6. CYP probe substrate (midazolam, TRC, M343000/3 μM) and positive control inhibitor (ketoconazole, SIGMA, Cat No. K1003-100MG).
A 100 mM PBS buffer was prepared. A 0.25 mg/mL microsome solution, a 7.5 mM MgCl2 and a 5 mM NADPH solution were prepared using the buffer. A 30 mM stock solution was diluted with DMSO to obtain 30 mM, 10 mM, 3 mM, 1 mM, 0.3 mM, 0.03 mM, 0.003 mM and 0 mM serial solutions I, which were further diluted 200-fold with phosphate buffer (PBS) to obtain serial test solutions II (150, 50, 15, 5, 1.5, 0.15, 0.015 and 0 μM). A midazolam working solution was diluted with PBS to 15 μM. 40 μL of a 0.25 mg/mL microsome solution prepared in 7.5 mM MgCl2 and 20 μL of each of the […] midazolam working solution and the compound working solutions (150, 50, 15, 5, 1.5, 0.15, 0.015 and 0 μM) were measured out and well mixed. Ketoconazole at the same concentration was used in place of the compound as a positive control group. […]
The IC50 value of the drug for the site of metabolism of midazolam in CYP3A4 was calculated by Graphpad Prism and is shown in Table 5.
(Liver microsomes are vesicles of endoplasmic reticulum, rich in cytochrome P450 enzymes.)

The target of data set [2] is T1, CYP3A4. The experiment in a line: Time-dependent inhibition of site of metabolism of testosterone in human liver microsome CYP3A4. The format is in vitro ADME. To be noted: for IC50: testosterone site. The procedure:
• 1. Phosphate buffer (20×PBS, purchased from Sangon); • 2. NADPH (ACROS, A2646-71-1); • 3. Human liver microsome (Corning Gentest, Cat No. 452161, Lot No. 905002, Donor36); • 4. ABI QTrap 4000 LC-MS System (AB Sciex); • 5. ZORBAX Extend-C18, 3×50 mm, 3.5 m (Agilent, USA); • 6. CYP probe substrate (testosterone, Vocko, CAS No. [58-22-0]/75 μM) and positive control inhibitor (verapamil, Adamas Reagent Co., Ltd, Cat No. 25904A).
A 100 mM PBS buffer was prepared. A 0.25 mg/mL microsome solution, a 7.5 mM MgCl2 and a 5 mM NADPH solution were prepared using the buffer. A 30 mM stock solution was diluted with DMSO to obtain 30 mM, 10 mM, 3 mM, 1 mM, 0.3 mM, 0.1 mM, 0.03 mM and 0 mM serial solutions I, which were further diluted 200-fold with phosphate buffer (PBS) to obtain serial test solutions II (150, 50, 15, 5, 1.5, 0.5, 0.15 and 0 μM). A midazolam working solution was diluted with PBS to 15 μM.
The serial test solutions prepared above were well mixed by shaking and aliquoted in 20 μL portions into corresponding reaction plates (+NADPH, TO and -NADPH groups were set). Three parallel tests were set. 40 μL of the liver microsome working solution was added to each 96-well plate. 20 μL of a corresponding substrate solution was added to the TO plate. 20 μL of NADPH was added to the TO plate and +NADPH group. A timer was started, and the plates were incubated in a water bath at 37° C. After 30 min of incubation, the TO plate was taken out, and the reaction was terminated with 250 μL of an internal standard-containing ACN solution. The +NADPH group was supplemented with 20 μL of the corresponding substrate solution, and the −NADPH group was supplemented with 20 μL of the corresponding substrate solution and 20 μL of NADPH. A timer was started, and the plates were incubated in a water bath at 37° C. After 30 min of incubation, the plates were taken out, and the reactions were terminated with 250 μL of an internal standard-containing ACN solution. […]
The IC50 value of the drug for the site of metabolism of testosterone in CYP3A4 was calculated by Graphpad Prism and is shown in Table 8.

Another data set has as its target hERG potassium channels (Homo sapiens (Human), UniProt Q12809). The data set is described as follows: Blocking of hERG potassium currents (automated patch clamp, HEK293-hERG). The format is cell-based. How it is done:
The blocking of hERG potassium currents by the compound disclosed herein was tested in a stable cell strain transfected with hERG potassium channels using automated patch clamp.
Stably-expressed HEK293-hERG cell strains were subcultured at a density of 1:4 in an MEM/EBSS medium (10% FBS, 400 μg/mL G418, 1% MEM non-essential amino acid solution (100×), and 1% sodium pyruvate solution) and subjected to an automated patch clamp experiment within 48-72 h after the start of the culture. On the day of the experiment, the cells were digested with 0.25% pancreatin, then centrifuged, collected, and resuspended in an extracellular fluid (140 mM NaCl, 4 mM KCl, 1 mM MgCl2, 2 mM CaCl2, 5 mM D-glucose monohydrate, 10 mM Hepes, pH 7.4, 298 mOsm) to form a cell suspension. The cell suspension was placed on the cell bank of the Patchliner instrument that transferred the cells to the chip (NPC-16) using a negative pressure controller. The negative pressure drew individual cells to the wells of the chip. […] Data were recorded and analyzed using the HEAK Patchmaster, HEAK EPC10 patch clamp amplifier (Nanion), Pathliner software and Pathcontrol HTsoftware, and the current of the compound at each concentration and the current of the blank control were analyzed.
On the technique in general: Block of hERG is tested as a sign of cardiac risk.

T1 sequence (P08684 whole entry): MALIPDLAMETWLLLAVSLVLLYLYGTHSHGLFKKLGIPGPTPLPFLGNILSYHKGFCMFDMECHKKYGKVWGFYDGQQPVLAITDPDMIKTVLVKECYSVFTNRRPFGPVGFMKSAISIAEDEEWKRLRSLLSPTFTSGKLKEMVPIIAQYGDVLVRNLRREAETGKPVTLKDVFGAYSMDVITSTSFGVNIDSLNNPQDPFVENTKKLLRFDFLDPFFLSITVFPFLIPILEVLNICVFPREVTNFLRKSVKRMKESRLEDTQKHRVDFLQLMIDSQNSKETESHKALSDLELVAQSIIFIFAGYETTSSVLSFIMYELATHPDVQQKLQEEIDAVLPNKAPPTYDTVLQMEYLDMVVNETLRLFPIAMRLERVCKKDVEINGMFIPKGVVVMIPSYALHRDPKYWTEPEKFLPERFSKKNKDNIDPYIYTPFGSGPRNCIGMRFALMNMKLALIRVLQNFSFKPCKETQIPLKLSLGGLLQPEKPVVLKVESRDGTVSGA
Chain of hERG potassium channels (Q12809 whole entry): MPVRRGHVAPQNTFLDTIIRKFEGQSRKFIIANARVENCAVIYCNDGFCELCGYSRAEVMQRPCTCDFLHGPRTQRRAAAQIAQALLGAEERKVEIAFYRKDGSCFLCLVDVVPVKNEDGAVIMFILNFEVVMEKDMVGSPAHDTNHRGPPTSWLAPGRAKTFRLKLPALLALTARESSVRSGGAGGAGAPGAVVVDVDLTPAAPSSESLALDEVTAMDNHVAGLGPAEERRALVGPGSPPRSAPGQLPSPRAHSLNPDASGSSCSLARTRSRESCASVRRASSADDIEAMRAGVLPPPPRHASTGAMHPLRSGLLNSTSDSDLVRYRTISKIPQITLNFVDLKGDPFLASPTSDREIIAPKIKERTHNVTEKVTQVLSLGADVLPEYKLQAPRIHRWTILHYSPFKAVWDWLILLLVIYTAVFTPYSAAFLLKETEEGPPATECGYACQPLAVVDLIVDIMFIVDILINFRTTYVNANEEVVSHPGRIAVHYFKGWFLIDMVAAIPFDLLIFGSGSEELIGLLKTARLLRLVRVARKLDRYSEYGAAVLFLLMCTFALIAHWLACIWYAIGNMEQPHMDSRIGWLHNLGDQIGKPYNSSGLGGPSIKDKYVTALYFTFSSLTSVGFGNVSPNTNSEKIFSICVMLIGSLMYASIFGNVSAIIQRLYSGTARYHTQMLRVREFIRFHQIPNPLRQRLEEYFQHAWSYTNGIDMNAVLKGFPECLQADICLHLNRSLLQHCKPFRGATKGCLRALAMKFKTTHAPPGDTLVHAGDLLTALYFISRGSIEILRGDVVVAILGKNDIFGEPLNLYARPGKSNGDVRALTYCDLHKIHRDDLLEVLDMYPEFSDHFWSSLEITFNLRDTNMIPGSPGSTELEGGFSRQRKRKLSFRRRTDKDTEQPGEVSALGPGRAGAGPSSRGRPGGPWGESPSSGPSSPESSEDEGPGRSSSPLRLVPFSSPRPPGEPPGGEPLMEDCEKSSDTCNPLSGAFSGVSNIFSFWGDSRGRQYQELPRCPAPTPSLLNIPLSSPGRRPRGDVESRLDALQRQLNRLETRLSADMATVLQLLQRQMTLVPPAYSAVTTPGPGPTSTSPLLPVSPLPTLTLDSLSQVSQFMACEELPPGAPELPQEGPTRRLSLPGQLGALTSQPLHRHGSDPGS

As for `[2H]C1([2H])Oc2cc3c(cc2O1)[C@@H](c1ccc(NC2CN(CCCF)C2)cn1)N(CC(F)(F)CO)[C@H](C)C3` [Compound 1, 2,2-Difluoro-3-((5S,7R)-5-(5-((1-(3-fluoropropyl)azetidin-3-yl)amino)pyridin-2-yl)-7-methyl-7,8-dihydro-[1,3]dioxolo[4,5-g]isoquinolin-6(5H)-yl-2,2-d2)propan-1-ol], the half-inhibitory concentration (IC50) at CYP3A4 [1] is 15.4 µM; at CYP3A4 [2] (pre-incubation with NADPH 30 min), more than 30 µM; against CYP3A4 [2] (pre-incubation without NADPH), more than 30 µM; on hERG potassium channels it was more than 30 µM. For the same compound, at CYP3A4 [2] (microsomes), the “IC50 Shift” value was “No TDI”.
